Source: PMC6099540 (2018)

The compounds below were run on c-KIT 1 (DNA, G4) AGGGAGGGCGCTGGGAGGAGGG (assay: CD melting at 265 nm). Conditions: 10 mM KCl, 90 mM LiCl; 10 mM Tris-HCl, pH 7.2; 2 µM DNA, 3 eq ligand; 1 °C/min.

SMILES | ΔTm
CC[n+]1c(/C=C/c2ccc3c(c2)c2ccccc2n3CCCCn2ccnc2)sc2ccccc21 | 8.4 °C
CC[n+]1c(/C=C/c2ccc3c(c2)c2ccccc2n3CCCCn2cncn2)sc2ccccc21 | 5.4 °C
CCn1c2ccccc2c2cc(/C=C/c3sc4ccccc4[n+]3CC)ccc21 | 5.9 °C
